Results published in patent publication USRE48461E1, “Modulation of androgen receptor expression” (Ionis Pharmaceuticals, Inc., priority 2012, dated 2021).
Oligonucleotides are written 5' to 3', each unit as a sugar letter and its base; * is a phosphorothioate linkage, no mark a phosphodiester; rarer units and linkages stand in square brackets, end groups in braces. Plain capitals give the bases only. k = constrained ethyl (cEt); [5mC] = 5-methylcytosine; d = 2'-deoxy (DNA)

Tested on: AR mRNA
Assay: Dose-dependent antisense inhibition of human AR in HuVEC cells (electroporation, qRT-PCR RTS3559, IC50)
Assay type: cell-based
Outline: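 HuVEC cells dosed with antisense oligonucleotides by electroporation and treated approximately 16 hours. AR mRNA quantified by real-time qPCR with primer probe set RTS3559 and normalised to total RNA by RIBOGREEN; IC50 from dose-response.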

In the case of “549372 (kA*kA*kG*dT*dT*dG*dT*dA*dG*dT*dA*dG*dT*k[5mC]*kG*k[5mC]) [compound 549372]”, the “percent inhibition of AR” value (31.25 nM, HuVEC, ~16 h, Table 14) is reported as 2%, the “percent inhibition of AR” value (46.9 nM, HuVEC, ~16 h, Table 15) is reported as 9% and the “percent inhibition of AR” value (55.6 nM, HuVEC, ~16 h, Table 3) is reported as 22%. The “percent inhibition of AR” value (62.5 nM, HuVEC, ~16 h, Table 14) was 17%, the “percent inhibition of AR” value (125.0 nM, HuVEC, ~16 h, Table 14) was 31% and the “percent inhibition of AR” value (166.7 nM, HuVEC, ~16 h, Table 3) was 51%. The “percent inhibition of AR” value (187.5 nM, HuVEC, ~16 h, Table 15) was 41%, the “percent inhibition of AR” value (500.0 nM, HuVEC, ~16 h, Table 3) was 85% and the “percent inhibition of AR” value (500.0 nM, HuVEC, ~16 h, Table 14) was 61%. The “percent inhibition of AR” value (750.0 nM, HuVEC, ~16 h, Table 15) was 66%, the “percent inhibition of AR” value (1000.0 nM, HuVEC, ~16 h, Table 14) was 80% and the “percent inhibition of AR” value (1500.0 nM, HuVEC, ~16 h, Table 3) was 89%. For the same substance, the “percent inhibition of AR” value (3000.0 nM, HuVEC, ~16 h, Table 15) was 87%, the IC50 (HuVEC cells, electroporation) was 0.29 µM and the “inhibition of AR mRNA at 46.9 nM” value (HuVEC cells, electroporation, 46.9 nM ASO) was 9%. The “inhibition of AR mRNA at 187.5 nM” value (HuVEC cells, electroporation, 187.5 nM ASO) was 41%, the “inhibition of AR mRNA at 750.0 nM” value (HuVEC cells, electroporation, 750.0 nM ASO) was 66% and the “inhibition of AR mRNA at 3000.0 nM” value (HuVEC cells, electroporation, 3000.0 nM ASO) was 87%. It also gave an IC50 (HuVEC, ~16 h, Table 3) of 0.15 µM, an IC50 (HuVEC, ~16 h, Table 14) of 0.271 µM and an IC50 (HuVEC, ~16 h, Table 15) of 0.29 µM. For the same substance, the “percent inhibition of AR, 46.9 nM” value (Table 29, 46.9 nM, HuVEC, electroporation, approximately 16 hours) was 7%, the “percent inhibition of AR, 187.5 nM” value (Table 29, 187.5 nM, HuVEC, electroporation, approximately 16 hours) was 41% and the “percent inhibition of AR, 750.0 nM” value (Table 29, 750.0 nM, HuVEC, electroporation, approximately 16 hours) was 70%. For the same substance, the “percent inhibition of AR, 3000.0 nM” value (Table 29, 3000.0 nM, HuVEC, electroporation, approximately 16 hours) was 91%, the IC50 (Table 29, HuVEC, electroporation, approximately 16 hours) was 0.32 µM and the “percent inhibition of AR, 46.9 nM” value (Table 30, 46.9 nM, HuVEC, electroporation, approximately 16 hours) was 13%. The “percent inhibition of AR, 187.5 nM” value (Table 30, 187.5 nM, HuVEC, electroporation, approximately 16 hours) was 29%, the “percent inhibition of AR, 750.0 nM” value (Table 30, 750.0 nM, HuVEC, electroporation, approximately 16 hours) was 69% and the “percent inhibition of AR, 3000.0 nM” value (Table 30, 3000.0 nM, HuVEC, electroporation, approximately 16 hours) was 90%. The IC50 (Table 30, HuVEC, electroporation, approximately 16 hours) was 0.37 µM, the “percent inhibition of AR, 46.9 nM” value (Table 31, 46.9 nM, HuVEC, electroporation, approximately 16 hours) was 5% and the “percent inhibition of AR, 187.5 nM” value (Table 31, 187.5 nM, HuVEC, electroporation, approximately 16 hours) was 36%. For the same substance, the “percent inhibition of AR, 750.0 nM” value (Table 31, 750.0 nM, HuVEC, electroporation, approximately 16 hours) was 69%, the “percent inhibition of AR, 3000.0 nM” value (Table 31, 3000.0 nM, HuVEC, electroporation, approximately 16 hours) was 88% and the IC50 (Table 31, HuVEC, electroporation, approximately 16 hours) was 0.36 µM. The “percent inhibition of AR, 46.9 nM” value (Table 32, 46.9 nM, HuVEC, electroporation, approximately 16 hours) was 15%, the “percent inhibition of AR, 187.5 nM” value (Table 32, 187.5 nM, HuVEC, electroporation, approximately 16 hours) was 39% and the “percent inhibition of AR, 750.0 nM” value (Table 32, 750.0 nM, HuVEC, electroporation, approximately 16 hours) was 70%. The “percent inhibition of AR, 3000.0 nM” value (Table 32, 3000.0 nM, HuVEC, electroporation, approximately 16 hours) was 86%, the IC50 (Table 32, HuVEC, electroporation, approximately 16 hours) was 0.3 µM and the “percent inhibition of AR, 46.9 nM” value (Table 33, 46.9 nM, HuVEC, electroporation, approximately 16 hours) was 14%. For the same substance, the “percent inhibition of AR, 187.5 nM” value (Table 33, 187.5 nM, HuVEC, electroporation, approximately 16 hours) was 33%, the “percent inhibition of AR, 750.0 nM” value (Table 33, 750.0 nM, HuVEC, electroporation, approximately 16 hours) was 64% and the “percent inhibition of AR, 3000.0 nM” value (Table 33, 3000.0 nM, HuVEC, electroporation, approximately 16 hours) was 90%. For the same substance, the IC50 (Table 33, HuVEC, electroporation, approximately 16 hours) was 0.34 µM, the “percent inhibition of AR, 46.9 nM” value (Table 34, 46.9 nM, HuVEC, electroporation, approximately 16 hours) was 14% and the “percent inhibition of AR, 187.5 nM” value (Table 34, 187.5 nM, HuVEC, electroporation, approximately 16 hours) was 36%. For the same substance, the “percent inhibition of AR, 750.0 nM” value (Table 34, 750.0 nM, HuVEC, electroporation, approximately 16 hours) was 64%, the “percent inhibition of AR, 3000.0 nM” value (Table 34, 3000.0 nM, HuVEC, electroporation, approximately 16 hours) was 88% and the IC50 (Table 34, HuVEC, electroporation, approximately 16 hours) was 0.32 µM. The “percent inhibition of AR, 46.9 nM” value (Table 35, 46.9 nM, HuVEC, electroporation, approximately 16 hours) was 0%, the “percent inhibition of AR, 187.5 nM” value (Table 35, 187.5 nM, HuVEC, electroporation, approximately 16 hours) was 28% and the “percent inhibition of AR, 750.0 nM” value (Table 35, 750.0 nM, HuVEC, electroporation, approximately 16 hours) was 64%. The “percent inhibition of AR, 3000.0 nM” value (Table 35, 3000.0 nM, HuVEC, electroporation, approximately 16 hours) was 88%, the IC50 (Table 35, HuVEC, electroporation, approximately 16 hours) was 0.42 µM and the “percent inhibition of AR, 46.9 nM” value (Table 36, 46.9 nM, HuVEC, electroporation, approximately 16 hours) was 2%. The “percent inhibition of AR, 187.5 nM” value (Table 36, 187.5 nM, HuVEC, electroporation, approximately 16 hours) was 26%, the “percent inhibition of AR, 750.0 nM” value (Table 36, 750.0 nM, HuVEC, electroporation, approximately 16 hours) was 61% and the “percent inhibition of AR, 3000.0 nM” value (Table 36, 3000.0 nM, HuVEC, electroporation, approximately 16 hours) was 85%. It also gave an IC50 (Table 36, HuVEC, electroporation, approximately 16 hours) of 0.42 µM.
